pIC50: −log10 of the molar value. ≈ marks a conversion by molar mass, not a printed value.
Assays:
Tubulin = assay: Inhibition of tubulin polymerization (unknown origin) pretreated for 15 mins followed by GTP addition by spectrophotometric method; format: protein-complex assay, Homo sapiens
P388 = assay: Cytotoxicity against mouse P388 cells; format: functional, cell-based
A549 = assay: Cytotoxicity against human A549 cells; format: functional, cell-based
[1] = Cytotoxicity against human MEL28 cells; format: functional, cell-based; details: SK-MEL-28
HT-29 = assay: Cytotoxicity against human HT-29 cells; format: functional, cell-based

SMILES	pIC50 (Tubulin)	IC50 (P388) [ng/mL]	IC50 (A549) [ng/mL]	IC50 [1] [ng/mL]	IC50 (HT-29) [ng/mL]
CC[C@H](C)[C@@H]([C@@H](CC(=O)N1CCC[C@H]1[C@H](OC)[C@@H](C)C(=O)N[C@@H](Cc1ccccc1)c1nccs1)OC)N(C)C(=O)[C@@H](NC(=O)[C@H](C(C)C)N(C)C)C(C)C [DOLASTATIN-10]	5.92				
COC1=CC(=O)N(C(=O)[C@@H](OC(=O)[C@@H]2CCCN2C(=O)[C@@H]2CCCN2C(=O)[C@H](C(C)C)N(C)C(=O)[C@@H](NC(=O)[C@H](C(C)C)N(C)C)C(C)C)C(C)C)[C@H]1Cc1ccccc1 [DOLASTATIN 15]	4.64				
C=C1C[C@@H]2C/C=C/C(=O)C/C(C)=C\C=C\C(=O)O[C@H]([C@H](O)NC(=O)/C=C\C=C\C)C/C(C)=C/[C@H](C1)O2 [ZAMPANOLIDE]		1 to 5 (≈ 2.02 to 10.1 nM)	1 to 5 (≈ 2.02 to 10.1 nM)	1 to 5 (≈ 2.02 to 10.1 nM)	1 to 5 (≈ 2.02 to 10.1 nM)
